What was measured:
Format in all cases: in vivo
Monochoria vaginalis = experiment: Test Example 2: herbicidal activity, application during weed generation in submerged conditions (symbol C); conditions: Table 23; application herbicide amount 320 g/ha; grade 0-5 by criteria of Test Example 1
Summary of the method: (§1)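 Alluvial soil in pots was flooded to a 4 cm water depth and sown with a mix of the three weed species, then grown in a greenhouse at 25° C. to 30° C. At the one- to two-leaf stage, an emulsifiable formulation diluted in water to a set dose was applied to the water surface. Effects were scored visually 3 weeks later.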

[1] = test system: Echinochloa oryzacola Vasing.; experiment: Test Example 2: herbicidal activity, application during weed generation in submerged conditions (symbol A); conditions: Table 23; application herbicide amount 320 g/ha; grade 0-5 by criteria of Test Example 1
Summary of the method: as §1

transplanted rice plant = experiment: Test Example 1: effect on crop, application before weed generation in submerged conditions (symbol a); conditions: application herbicide amount 320 g/ha
Summary of the method: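 Alluvial soil pots flooded to 4 cm water, sown with Echinochloa oryzacola, Scirpus juncoides and Monochoria vaginalis, then transplanted with 2.5 leaf stage rice seedlings; pre-emergence application. Greenhouse 25° C. to 30° C.; scored 0–5 by herbicidal ratio 3 weeks after application.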

Setaria viridis = experiment: Test Example 4: herbicidal effect by soil treatment (symbol G); conditions: application herbicide amount 320 g/ha
Summary of the method: (§2)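 Seeds were sown in sterilized diluvial soil, covered with about 1.5 cm of soil, and the soil surface was sprayed with a water-diluted emulsion of the compound at a predetermined rate. Plants grew in a greenhouse at 25° C. to 30° C.; effects were scored visually 3 weeks after application.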

[2] = test system: directly sowed rice plant; experiment: Test Example 3: effect on crop by foliage application, Wagner pot (symbol b); conditions: application herbicide amount 320 g/ha
Summary of the method: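 Alluvial soil in a 1/10000-are Wagner pot was flooded to a water depth of 0.1–0.5 cm. Echinochloa crus-galli var. crus-galli, Leptochloa chinensis, Cyperus difformis and rice were sown into it and grown in a greenhouse at 25–30 °C.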

rapeseed = experiment: Test Example 4: effect on crop by soil treatment (symbol g); conditions: application herbicide amount 320 g/ha
Summary of the method: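 Steps: fill box with sterilized diluvial soil; sow seed spot-like; cover with ~1.5 cm soil; grow in greenhouse (25° C. to 30° C.).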

wheat = experiment: Test Example 5: effect on crop by foliage application, plastic box (symbol e); conditions: 320 g/ha, 3 weeks after application
Summary of the method: (§3)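 Seeds were sown in spots in sterilized diluvial soil held in a plastic box 21 cm × 13 cm × 7 cm deep, covered with about 1.5 cm of soil, and grown in a greenhouse at 25° C. to 30° C.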

corn = experiment: Test Example 5: effect on crop by foliage application, plastic box (symbol c); conditions: 320 g/ha, 3 weeks after application
Summary of the method: as §3

Avena fatua = experiment: Test Example 4: herbicidal effect by soil treatment (symbol I); conditions: application herbicide amount 320 g/ha
Summary of the method: as §2

[3] = test system: Echinochloa oryzacola Vasing.; experiment: Test Example 1: herbicidal activity, application before weed generation in submerged conditions (symbol A); conditions: application herbicide amount 320 g/ha
Summary of the method: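 Scores run 0 to 5 by herbicidal ratio, with 5 meaning 90% or more and 0 meaning 5% or lower, read 3 weeks after treatment. Compound was applied as a diluted emulsion to the water surface of submerged alluvial-soil pots on the day weed seeds were sown.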

Digitaria ciliaris = experiment: Test Example 5: herbicidal effect by foliage application, plastic box (symbol F); conditions: 320 g/ha, 3 weeks after application
Summary of the method: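 Seeds were sown in sterilized diluvial soil, covered with about 1.5 cm of soil and grown 14 days in a greenhouse at 25° C. to 30° C. An emulsifiable formulation diluted in water to a set rate was sprayed over foliage, and injury was scored 3 weeks later.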

| Structure (SMILES) | Herbicidal effect grade, C: Monochoria vaginalis (Monochoria vaginalis) | Herbicidal effect grade, A: Echinochloa oryzacola Vasing. [1] | Effect grade on crop, a: transplanted rice plant (transplanted rice plant) | G: Setaria viridis, herbicidal effect grade (Setaria viridis) | effect on crop b (directly sowed rice plant), grade 0-5 [2] | g: rapeseed, effect on crop grade (rapeseed) | e: wheat, effect on crop grade (wheat) | c: corn, effect on crop grade (corn) | I: Avena fatua, herbicidal effect grade (Avena fatua) | Herbicidal effect grade, A: Echinochloa oryzacola Vasing. [3] | F: Digitaria ciliaris, herbicidal effect grade (Digitaria ciliaris) |
| --- | --- | --- | --- | --- | --- | --- | --- | --- | --- | --- | --- |
| CON=C(C)CC1CC(O)=C(c2c(C)cc(-c3ccc(OC)cc3)cc2C)C1=O (mixture of isomers) [6-017] | 0 (Herbicidal ratio of 5% or lower (almost no effect)) | 4 (Herbicidal ratio of 70% or higher and lower than 90%) | 5 (Herbicidal ratio of 90% or more (almost completely withered)) | 5 (Herbicidal ratio of 90% or more (almost completely withered)) | 5 (Herbicidal ratio of 90% or more (almost completely withered)) | 0 (Herbicidal ratio of 5% or lower (almost no effect)) | 1 (Herbicidal ratio of 5% or higher and lower than 20%) | 5 (Herbicidal ratio of 90% or more (almost completely withered)) | 0 (Herbicidal ratio of 5% or lower (almost no effect)) | 5 (Herbicidal ratio of 90% or more (almost completely withered)) | 5 (Herbicidal ratio of 90% or more (almost completely withered)) |
| CON=C(C)CC1CC(O)=C(c2c(C)cc(-c3ccc(C)cc3)cc2C)C1=O (mixture of isomers) [6-018] | 3 (Herbicidal ratio of 40% or higher and lower than 70%) | 5 (Herbicidal ratio of 90% or more (almost completely withered)) | 5 (Herbicidal ratio of 90% or more (almost completely withered)) | 5 (Herbicidal ratio of 90% or more (almost completely withered)) | 5 (Herbicidal ratio of 90% or more (almost completely withered)) | 0 (Herbicidal ratio of 5% or lower (almost no effect)) | 2 (Herbicidal ratio of 20% or higher and lower than 40%) | 5 (Herbicidal ratio of 90% or more (almost completely withered)) | 0 (Herbicidal ratio of 5% or lower (almost no effect)) | 5 (Herbicidal ratio of 90% or more (almost completely withered)) | 5 (Herbicidal ratio of 90% or more (almost completely withered)) |
| CON=C(C)CC1CC(O)=C(c2c(C)cc(C#CCO)cc2C)C1=O (mixture of isomers) [6-025] | 0 (Herbicidal ratio of 5% or lower (almost no effect)) | 2 (Herbicidal ratio of 20% or higher and lower than 40%) | 3 (Herbicidal ratio of 40% or higher and lower than 70%) | 4 (Herbicidal ratio of 70% or higher and lower than 90%) | 5 (Herbicidal ratio of 90% or more (almost completely withered)) | 0 (Herbicidal ratio of 5% or lower (almost no effect)) | 1 (Herbicidal ratio of 5% or higher and lower than 20%) | 4 (Herbicidal ratio of 70% or higher and lower than 90%) | 2 (Herbicidal ratio of 20% or higher and lower than 40%) | 2 (Herbicidal ratio of 20% or higher and lower than 40%) | 4 (Herbicidal ratio of 70% or higher and lower than 90%) |
| CON=C(C)CC1CC(O)=C(c2c(C)cc(-c3ccc(Cl)cc3)cc2C)C1=O (mixture of isomers) [6-029] | 2 (Herbicidal ratio of 20% or higher and lower than 40%) | 5 (Herbicidal ratio of 90% or more (almost completely withered)) | 5 (Herbicidal ratio of 90% or more (almost completely withered)) | 5 (Herbicidal ratio of 90% or more (almost completely withered)) | 5 (Herbicidal ratio of 90% or more (almost completely withered)) | 2 (Herbicidal ratio of 20% or higher and lower than 40%) | 5 (Herbicidal ratio of 90% or more (almost completely withered)) | 5 (Herbicidal ratio of 90% or more (almost completely withered)) | 4 (Herbicidal ratio of 70% or higher and lower than 90%) | 5 (Herbicidal ratio of 90% or more (almost completely withered)) | 5 (Herbicidal ratio of 90% or more (almost completely withered)) |
| C=Cc1cc(C)c(C2=C(O)CC(CC(C)=NOC)C2=O)c(C)c1 (mixture of isomers) [6-031] | 0 (Herbicidal ratio of 5% or lower (almost no effect)) | 4 (Herbicidal ratio of 70% or higher and lower than 90%) | 1 (Herbicidal ratio of 5% or higher and lower than 20%) | 0 (Herbicidal ratio of 5% or lower (almost no effect)) | 4 (Herbicidal ratio of 70% or higher and lower than 90%) | 3 (Herbicidal ratio of 40% or higher and lower than 70%) | 0 (Herbicidal ratio of 5% or lower (almost no effect)) | 4 (Herbicidal ratio of 70% or higher and lower than 90%) | 0 (Herbicidal ratio of 5% or lower (almost no effect)) | 3 (Herbicidal ratio of 40% or higher and lower than 70%) | 5 (Herbicidal ratio of 90% or more (almost completely withered)) |
| CON=C(C)CC1CC(O)=C(c2c(C)cc(-c3cccc(Cl)c3)cc2C)C1=O (mixture of isomers) [6-034] | 3 (Herbicidal ratio of 40% or higher and lower than 70%) | 5 (Herbicidal ratio of 90% or more (almost completely withered)) | 5 (Herbicidal ratio of 90% or more (almost completely withered)) | 5 (Herbicidal ratio of 90% or more (almost completely withered)) | 5 (Herbicidal ratio of 90% or more (almost completely withered)) | 1 (Herbicidal ratio of 5% or higher and lower than 20%) | 0 (Herbicidal ratio of 5% or lower (almost no effect)) | 5 (Herbicidal ratio of 90% or more (almost completely withered)) | 1 (Herbicidal ratio of 5% or higher and lower than 20%) | 5 (Herbicidal ratio of 90% or more (almost completely withered)) | 5 (Herbicidal ratio of 90% or more (almost completely withered)) |

Reference: patent US11000033B2, “Ketone or oxime compound, and herbicide” (NISSAN CHEMICAL CORPORATION, priority 2014, dated 2021)
